We go through one molecule from patent publication US11421145B2, “Oil recovery methods using a formulation containing an unsaturated zwitterionic surfactant and a polymer” (King Fahd University of Petroleum and Minerals, priority 2019, dated 2022).

Holding throughout (type): physicochemical
Data set [1] in a line: Solubility and compatibility in seawater (SW) and formation water (FW). How it is done:
Synthetic seawater (SW) and formation water (FW) were prepared using NaCl, Na2SO4, NaHCO3, CaCl2, and MgCl2. All the salts were obtained from Sigma-Aldrich, USA.
Solubility and compatibility of the surfactant in the reservoir and injection brine are the primary considerations for further evaluation of the unsaturated surfactant for EOR application. If the surfactant is not soluble in the seawater and formation brine, it can be rejected at the initial stage. […] After the compatibility test with SW and FW, the short-term thermal stability of the synthesized unsaturated surfactant was evaluated using TGA analysis. […] Only 3% weight loss was observed up to 200° C., which was mainly associated with solvent and water evaporation. […] TGA results helped to identify and eliminate the surfactants that had lower decomposition temperatures. However, for real field applications, long-term thermal stability of the surfactant must be considered, as the surfactant residence time in the reservoir could vary from a few days to a few months.

Data set [2] can be described thus: Short-term thermal stability by thermogravimetric analysis (TGA). How it is done: The short-term thermal stability of the unsaturated surfactant was assessed using thermogravimetric analysis (TGA). The thermal stability for a longer period (2 weeks) was determined by FTIR and NMR. The synthesized unsaturated surfactant was dried and heated at 10° C./min in an SDT-Q600 instrument (TA Instruments) from room temperature to 600° C. under nitrogen atmosphere. The thermal stability for a longer period was determined by aging 1 wt % aqueous solution of the unsaturated surfactant at 90° C. for 15 days. FTIR, ^13C NMR, and ^1H NMR were used to identify the structural changes in the unsaturated surfactant after aging. A Nicolet 6700 spectrometer was used for FTIR analysis of the unsaturated surfactant, while a JEOL 500 MHz spectrometer was used for obtaining the NMR spectra.
Solubility and compatibility of the surfactant in the reservoir and injection brine are the primary considerations for further evaluation of the unsaturated surfactant for EOR application. If the surfactant is not soluble in the seawater and formation brine, it can be rejected at the initial stage. […] After the compatibility test with SW and FW, the short-term thermal stability of the synthesized unsaturated surfactant was evaluated using TGA analysis. […] Only 3% weight loss was observed up to 200° C., which was mainly associated with solvent and water evaporation. […]

A short description of data set [3]: Surface tension by pendant-drop technique (CMC and surface properties). How it is done:
The surface tension of the unsaturated surfactant in SW and FW at different temperatures was analyzed using a Biolin Scientific Attension instrument. The pendant-drop technique was used to measure the surface tension at 30° C. and 60° C. Other surface properties such as CMC, surface tension at CMC (γcmc), surfactant ability at lower surface tension (πcmc), maximum surface access (Γmax), and minimum area per molecule (Amin) were also obtained from the surface tension data. These surface properties were calculated using Eqs. 1-3,
where γ0 is the surface tension of the brine (FW or SW), NA is the Avogadro number, dγ/dlnC is the slope below CMC in the surface tension plot, C is the surfactant concentration in brine, T is temperature, R is the gas constant, and n=1 for zwitterionic surfactants [Wang, Y., Zhang, Y., Liu, X., Wang, J., Wei, L., & Feng, Y. (2014) Effect of a hydrophilic head group on Krafft temperature, surface activities and rheological behaviors of Erucyl Amidobetaines. Journal of Surfactants and Detergents, 17:295-301—incorporated herein by reference]. The interfacial tension between crude oil and water was measured using a spinning drop tensiometer from Kruss (SITE 100). All the reported points are the average equilibrium values.
Variations in the surface tension of the unsaturated surfactant with concentration at different temperatures and salinities are summarized in FIG. 7. […] The CMC and surface tension corresponding to the CMC (γcmc) were estimated from the breakpoint in surface tension versus concentration plots. […] A similar reduction in CMC with increasing NaCl concentration was reported for the alkyl amidosulfobetaine surfactant [Feng, Y., & Chu, Z. (2016) Correlating surface activity with structural and environmental parameters for alkylamidosulfobetaine surfactants. Colloid and Polymer Science, 294:957-963, incorporated herein by reference in its entirety]. However, in this disclosure, the reduction in the CMC was observed when SW was replaced with FW. The reduction in the CMC could be associated with the salting-out effect of the unsaturated surfactant hydrophobic tail, which got enhanced by increasing the salinity [Feng, Y., & Chu, Z. (2016) Correlating surface activity with structural and environmental parameters for alkylamidosulfobetaine surfactants. Colloid and Polymer Science, 294:957-963, incorporated herein by reference in its entirety].

The nature of data set [4]: Compatibility of surfactant with AM-AMPS copolymer. To be noted: commercially available AM-AMPS copolymer. Here is the method: The interactions of the synthesized unsaturated surfactant with a commercially available copolymer of acrylamide and 2-acrylamido-2-methylpropane sulfonic acid (AM-AMPS) were evaluated using compatibility and rheological tests.

The structures appear in SMILES notation.

For the molecule `CCCCCCCC/C=C\CCCCCCCC(=O)NCCC[N+](C)(C)CCCS(=O)(=O)[O-]` [unsaturated surfactant, 3-(N-oleamidopropyl-N,N-dimethylammonium) propane sulfonate], in data set [1] (SW (57,643 ppm) and FW (213,734 ppm)), the “precipitation or phase separation on dissolution” value is on record as “no precipitation or phase separation”. The “solubility in SW and FW” value in data set [1] (seawater and formation water) is listed as “excellent solubility”. Besides, in data set [2], the “short-range thermal stability (TGA)” value was “excellent short-range thermal stability”. For the same molecule, the “weight loss (TGA)” value in data set [2] (up to 200° C., heating rate 10° C. min^−1, nitrogen) came to 3%. The Amin was found to be 0.28 nm^2 in data set [3] (FW, 60 °C); 0.22 nm^2 in data set [3] (SW, 30 °C); 0.29 nm^2 in data set [3] (SW, 60 °C). Moreover, the CMC in data set [3] (FW, 60 °C) is 1.53 × × 10^−4 mol L^−1; in data set [3] (SW, 30 °C), 1.02 × × 10^−4 mol L^−1; in data set [3] (SW, 60 °C), 2.05 × × 10^−4 mol L^−1; in data set [3] (in FW (summary b150)) it was 0.000205 mol/L; in data set [3] (in SW (summary b150)), 0.000102 mol/L; in data set [3] (in SW and FW (as worded)) it was 0.000102 mol/L. The “Γmax × 10^6” value in data set [3] (FW, 60 °C) came to 5.88 mol m^−2; in data set [3] (SW, 30 °C) it was 7.27 mol m^−2; in data set [3] (SW, 60 °C), 5.60 mol m^−2. Also, the γcmc in data set [3] (FW, 60 °C) was determined as 33.55 mN m^−1; in data set [3] (SW, 30 °C), 30.23 mN m^−1; in data set [3] (SW, 60 °C), 31.03 mN m^−1. Further, the πcmc in data set [3] (FW, 60 °C) is on record as 38.04 mN m^−1; in data set [3] (SW, 30 °C), 41.76 mN m^−1; in data set [3] (SW, 60 °C) it was 40.96 mN m^−1. In data set [3] (corresponding to 1.02×10^−4 mol L^−1), the “CMC expressed as surfactant concentration” value is reported as 0.005%. Moreover, the “compatibility with acrylamide copolymer” value in data set [4] is reported as “excellent compatibility”.
